Earlier results, collected in article PMC2063322, “Phase I trial and pharmacokinetics of the tubulin inhibitor 1069C85--a synthetic agent binding at the colchicine site designed to overcome multidrug resistance” (British Journal of Cancer, 1997).
Like-named read-outs stand apart in the source and are kept apart here.

How the values were obtained:
[1] = 1995, cited from earlier work
[2] = set-up: method as in van Asperen et al (1996); settings: ref van Asperen et al (1996); cited from earlier work

| SMILES | dose limiting toxicity ([1]; 24 h-infusion schedule, ataxia, confusion and coma, ref Sklarin et al) | dose limiting toxicity ([1]; 72 h-infusion, ref Rowinsky et al) | accumulation of drug in the brains of P-glycoprotein-deficient versus wild-type mice [2] |
| --- | --- | --- | --- |
| CCOC(=O)Nc1cc2c(c(N)n1)N=C(c1ccccc1)[C@H](C)N2 [CI-980] | dose limiting central neurotoxicity | dose limiting myelosuppression | – |
| CC[C@]1(O)C[C@@H]2CN(CCc3c([nH]c4ccccc34)[C@@](C(=O)OC)(c3cc4c(cc3OC)N(C)[C@H]3[C@@](O)(C(=O)OC)[C@H](OC(C)=O)[C@]5(CC)C=CCN6CC[C@]43[C@@H]65)C2)C1 [vinblastine] | – | – | substantially greater accumulation |
